Experimental data: patent US9758508B2, “2,3-dihydro-isoindole-1-on derivative as BTK kinase suppressant, and pharmaceutical composition including same” (CRYSTALGENOMICS, INC., priority 2012, dated 2017)

Target: BTK (Homo sapiens (Human), UniProt Q06187)
Experiment: Assay for BTK inhibition activity (ELISA method)
Format: biochemical
Settings: 0.4 nM BTK enzyme, 50 μM ATP, 20 minutes at 30° C.
Protocol: In order to evaluate the activity of the compounds of the present invention as a BTK inhibitor, commercially available BTK (Promega) was used for this experiment. Specifically, an enzymatic reaction was conducted by mixing 0.4 nM of BTK enzyme, 40 μM of biotin-S1 substrate peptide and 50 μM of ATP in a reaction buffer (15 mM Tris-HCl (pH 7.5), 20 mM MgCl2, 2 mM MnCl2, 2 mM DTT, 0.1 mg/ml BSA). The mixture was treated with the test compounds at predetermined concentrations and allowed to react for 20 minutes at 30° C. Upon completion of the reaction, the activities of the test compounds were measured by ELISA method. The absorbance value of an untreated sample was used as a control (100% control). BTK enzyme activities were measured after treatment with various concentrations of the test compounds, and the concentration of test compounds resulting in 50% inhibition of BTK enzyme as compared to the control was determined as IC50 of BTK inhibitor.

BTK, sequence (Q06187 whole entry): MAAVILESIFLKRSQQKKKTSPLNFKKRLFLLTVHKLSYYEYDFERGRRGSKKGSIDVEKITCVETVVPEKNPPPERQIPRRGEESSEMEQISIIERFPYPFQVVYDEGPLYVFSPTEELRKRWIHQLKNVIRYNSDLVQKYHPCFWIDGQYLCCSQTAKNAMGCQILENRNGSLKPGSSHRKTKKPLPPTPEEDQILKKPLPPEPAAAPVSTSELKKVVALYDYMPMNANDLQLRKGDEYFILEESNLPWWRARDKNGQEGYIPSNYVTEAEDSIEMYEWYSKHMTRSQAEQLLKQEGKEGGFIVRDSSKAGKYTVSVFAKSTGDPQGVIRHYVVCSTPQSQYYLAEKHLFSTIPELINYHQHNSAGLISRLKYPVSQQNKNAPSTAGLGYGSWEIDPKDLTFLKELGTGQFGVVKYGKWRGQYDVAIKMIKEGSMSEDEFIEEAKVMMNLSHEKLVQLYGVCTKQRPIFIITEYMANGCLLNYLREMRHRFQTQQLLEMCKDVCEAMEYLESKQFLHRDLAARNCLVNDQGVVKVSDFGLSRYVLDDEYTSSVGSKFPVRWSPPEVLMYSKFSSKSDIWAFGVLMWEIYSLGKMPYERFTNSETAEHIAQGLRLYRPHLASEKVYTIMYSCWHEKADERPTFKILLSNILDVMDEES

| IC50 [nM] | Compound |
| --- | --- |
| 1 | Cc1cnc(-c2ccc(-c3ccc(NC(=O)Nc4c(F)cccc4F)cc3F)c3c2C(=O)NC3)[nH]1 [Compound 3, 1-(2,6-difluoro-phenyl)-3-{3-fluoro-4-[7-(5-methyl-1H-imidazol-2-yl)-1-oxo-2,3-dihydro-1H-isoindol-4-yl]-phenyl}-urea] |
| 0.9 | Cc1cnc(-c2ccc(-c3ccc(NC(=O)Nc4c(F)c(F)cc(F)c4F)cc3F)c3c2C(=O)NC3)[nH]1 [Compound 20, 1-{3-fluoro-4-[7-(5-methyl-1H-imidazol-2-yl)-1-oxo-2,3-dihydro-1H-isoindol-4-yl]-phenyl}-3-(2,3,5,6-tetrafluoro-phenyl)-urea] |
| 0.05 | Cc1cnc(-c2ccc(-c3ccc(NC(=O)Nc4c(F)ccc(Cl)c4F)cc3F)c3c2C(=O)NC3)[nH]1 [Compound 17, 1-(3-chloro-2,6-difluorophenyl)-3-(3-fluoro-4-(7-(5-methyl-1H-imidazol-2-yl)-1-oxoisoindolin-4-yl)phenyl)urea] |
| 0.4 | Cc1cnc(-c2ccc(-c3ccc(NC(=O)Nc4c(F)c(F)c(F)c(F)c4F)cc3F)c3c2C(=O)NC3)[nH]1 [Compound 9, 1-{3-fluoro-4-[7-(5-methyl-1H-imidazol-2-yl)-1-oxo-2,3-dihydro-1H-isoindol-4-yl]-phenyl}-3-pentafluorophenyl-urea] |
| 0.07 | Cc1cnc(-c2ccc(-c3ccc(NC(=O)Nc4c(F)ccc(F)c4Cl)cc3F)c3c2C(=O)NC3)[nH]1 [Compound 18, 1-(2-chloro-3,6-difluorophenyl)-3-(3-fluoro-4-(7-(5-methyl-1H-imidazol-2-yl)-1-oxoisoindolin-4-yl)phenyl)urea] |
| 4 | Cc1cnc(-c2ccc(-c3ccc(NC(=O)Nc4c(F)cc(Cl)cc4F)cc3F)c3c2C(=O)NC3)[nH]1 [Compound 19, 1-(4-chloro-2,6-difluoro-phenyl)-3-{3-fluoro-4-[7-(5-methyl-1H-imidazol-2-yl)-1-oxo-2,3-dihydro-1H-isoindol-4-yl]-phenyl}-urea] |
| 0.28 | Cc1cnc(-c2ccc(-c3ccc(NC(=O)Nc4c(F)ccc(F)c4F)cc3F)c3c2C(=O)NC3)[nH]1 [Compound 12, 1-{3-fluoro-4-[7-(5-methyl-1H-imidazol-2-yl)-1-oxo-2,3-dihydro-1H-isoindol-4-yl]-phenyl}-3-(2,3,6-trifluoro-phenyl)-urea] |
| 0.9 | Cc1cnc(-c2ccc(-c3ccc(NC(=O)Nc4c(F)cccc4Cl)cc3F)c3c2C(=O)NC3)[nH]1 [Compound 4, 1-(2-chloro-6-fluoro-phenyl)-3-{3-fluoro-4-[7-(5-methyl-1H-imidazol-2-yl)-1-oxo-2,3-dihydro-1H-isoindol-4-yl]-phenyl}-urea] |
| 5 | Cc1cnc(-c2ccc(-c3ccc(NC(=O)Nc4ccc(C#N)c(F)c4)cc3F)c3c2C(=O)NC3)[nH]1 [Compound 15, 1-(4-cyano-3-fluorophenyl)-3-(3-fluoro-4-(7-(5-methyl-1H-imidazol-2-yl)-1-oxoisoindolin-4-yl)phenyl)urea] |
| 0.1 | Cc1cnc(-c2ccc(-c3ccc(NC(=O)Nc4c(F)cc(F)cc4F)cc3F)c3c2C(=O)NC3)[nH]1 [Compound 7, 1-{3-fluoro-4-[7-(5-methyl-1H-imidazol-2-yl)-1-oxo-2,3-dihydro-1H-isoindol-4-yl]-phenyl}-3-(2,4,6-trifluoro-phenyl)-urea] |
| 5.6 | Cc1cnc(-c2ccc(-c3ccc(NC(=O)Nc4ccc(F)c(F)c4)cc3F)c3c2C(=O)NC3)[nH]1 [Compound 14, 1-(3,4-difluoro-phenyl)-3-{3-fluoro-4-[7-(5-methyl-1H-imidazol-2-yl)-1-oxo-2,3-dihydro-1H-isoindol-4-yl]-phenyl}-urea] |
